Assay results taken from PubChem BioAssay (NCI).
Where “and” joins values, the source holds several entries; their conditions need not be identical. Equal values may be shown once.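 Cells were grown in 96-well plates and exposed to each compound for 48 hours at five concentrations; endpoints were interpolated linearly between bracketing concentrations, or set to the highest concentration if not reached. GI50 is the concentration that inhibits growth by half. TGI denotes the concentration required for complete inhibition of growth.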

Tests used:
Assay in all cases: DTP human tumour cell line panel, 48 h
NCI-H23 lung = system: NCI-H23 lung
MCF7 breast = system: MCF7 breast
MDA-MB-435 = system: MDA-MB-435
NCI-H522 lung = system: NCI-H522 lung
EKVX NSCLC = system: EKVX NSCLC
SK-MEL-5 melanoma = system: SK-MEL-5 melanoma
M14 melanoma = system: M14 melanoma
IGROV1 ovarian = system: IGROV1 ovarian
SW-620 colon = system: SW-620 colon
OVCAR-3 ovarian = system: OVCAR-3 ovarian

Compound	TGI (NCI-H23 lung)	TGI (MCF7 breast)	TGI (MDA-MB-435)	TGI (NCI-H522 lung)	TGI (EKVX NSCLC)	TGI (SK-MEL-5 melanoma)	TGI (M14 melanoma)	TGI (IGROV1 ovarian)	TGI (SW-620 colon)	TGI (OVCAR-3 ovarian)	GI50 (SW-620 colon)	GI50 (NCI-H23 lung)	GI50 (MCF7 breast)	GI50 (MDA-MB-435)	GI50 (OVCAR-3 ovarian)	GI50 (NCI-H522 lung)	GI50 (SK-MEL-5 melanoma)	GI50 (M14 melanoma)	GI50 (IGROV1 ovarian)	GI50 (EKVX NSCLC)
CC(C)=CCc1c(OC(=O)c2c(C)cc(O)cc2O)cc(CO)c(CO)c1O	33 µM	46.5 µM	45.9 µM	39.2 µM	> 100 µM	29.1 µM	44.7 µM	62.2 µM												
COc1ccc(S(=O)(=O)Nc2ccccc2C(=O)O)cc1	> 100 µM			> 100 µM	> 100 µM	> 100 µM	> 100 µM	> 100 µM	> 100 µM	> 100 µM										
CCOC(=O)C1N(S(=O)(=O)c2ccc(C)cc2)CCC12c1ccccc1N(C(C)=O)C2c1ccc(OC)c(OC)c1 (stereo not drawn)	> 100 µM			> 100 µM	> 100 µM	> 100 µM	> 100 µM	> 100 µM	> 100 µM	> 100 µM										
CCCCCC[N+](C)(C)Cc1ccc(C[N+](C)(C)CCCCCC)cc1					27.7 µM	28.5 µM	9.34 µM	5.38 µM	26.6 µM	14.4 µM										
CC(C)=CC(=O)C/C(=N\NC(N)=S)C(=O)Nc1ccc(Cl)cc1	> 100 µM				> 100 µM	> 100 µM	> 100 µM	> 100 µM	> 100 µM	> 100 µM										
COC(=O)/C=C1/CCC(C(=O)OC)N1 (stereo not drawn)	> 100 µM				> 100 µM	> 100 µM	> 100 µM	> 100 µM	> 100 µM	> 100 µM										
Cn1cc(C2=C(c3cn(CCCCN)c4ccccc34)C(=O)NC2=O)c2ccccc21	> 25 µM	> 25 µM	> 25 µM	> 25 µM		> 25 µM	> 25 µM	> 25 µM	> 25 µM	> 25 µM	> 25 µM	> 25 µM	> 25 µM	> 25 µM	> 25 µM	> 25 µM	> 25 µM	> 25 µM	> 25 µM	
c1cc(N(CCn2cccn2)CCn2cccn2)cc(N(CCn2cccn2)CCn2cccn2)c1				> 100 µM	> 100 µM	> 100 µM	> 100 µM		> 100 µM	> 100 µM										
COC(=O)N(C(=O)OC)C(C(=O)O)C(C)C (stereo not drawn)	> 100 µM			> 100 µM	> 100 µM		> 100 µM		> 100 µM											
Cc1[nH]c2ccccc2c1C(=O)CC1(O)C(=O)Nc2ccccc21 (stereo not drawn)	> 100 µM				> 100 µM	> 100 µM	> 100 µM	> 100 µM	> 100 µM											
O=c1c(Oc2ccc(F)cc2F)cc2cnc(NC3CCOCC3)nc2n1CCCO	> 25 µM	> 25 µM	> 25 µM	> 25 µM		> 25 µM	> 25 µM	> 25 µM	> 25 µM	> 25 µM	> 25 µM	> 25 µM	> 25 µM	> 25 µM	> 25 µM	> 25 µM	> 25 µM	> 25 µM	> 25 µM	
C=C(COC(C)=O)CC(OC(C)=O)c1ccccc1 (stereo not drawn)	> 100 µM			> 100 µM	> 100 µM	> 100 µM	> 100 µM	> 100 µM	> 100 µM	> 100 µM										
CCC[CH2][Sn]1([CH2]CCC)[O]CC(Cc2ccccc2)[O]1 (stereo not drawn)	4.05 µM			0.93 µM	8.77 µM	14.2 µM	5.51 µM	13.8 µM	3.48 µM	7.42 µM	1.63 µM	1.53 µM			2.34 µM	0.259 µM	3.09 µM	2.3 µM	3.8 µM	2.39 µM
Cc1nc(Nc2ccc(Cl)cc2)sc1C(=O)NNc1ccc([N+](=O)[O-])cc1[N+](=O)[O-]	35.1 µM			29.6 µM	32.6 µM	30.2 µM	45.3 µM	46.6 µM	43.5 µM	38.7 µM										
Cc1ccc(NC(=O)C2C(=O)N(c3ccc(C)cc3)C(=O)/C2=N\NC(N)=S)cc1 (stereo not drawn)	> 100 µM			> 100 µM	> 100 µM	> 100 µM	> 100 µM	> 100 µM	> 100 µM	> 100 µM										
Cc1cc2c(ccc3c(C)cc(=O)oc32)o1	> 100 µM			> 100 µM	> 100 µM	> 100 µM	> 100 µM	> 100 µM	> 100 µM	> 100 µM										
CN(C)CC(C)(C)/C(=N\Nc1ccccc1)c1ccccc1	> 100 µM			> 100 µM	> 100 µM	> 100 µM	66.5 µM	> 100 µM	> 100 µM	> 100 µM										
C=C1C(=O)O[C@@H]2C[C@@H](C)[C@@H]3C=CC(=O)[C@@]3(C)[C@@H](OC(=O)CC(=O)O[C@H]3[C@@H]4C(=C)C(=O)O[C@@H]4C[C@@H](C)[C@@H]4C=CC(=O)[C@]43C)[C@H]12	0.123 µM	0.21 µM	0.144 µM		0.32 µM	0.215 µM	0.0845 µM	0.595 µM	0.0326 µM	0.159 µM										
Nc1ccccc1C(=O)CC1OC(=O)c2ccccc21 (stereo not drawn)		> 100 µM	> 100 µM	> 100 µM	> 100 µM		> 100 µM	> 100 µM	> 100 µM	> 100 µM										
CCc1cccc(C)c1NC(=O)c1sc2nc3c(cc2c1N)CCCCC3	> 100 µM	> 100 µM		41.9 µM	> 100 µM	13.8 µM	> 100 µM	> 100 µM	> 100 µM	9.02 µM	3.76 µM	4.67 µM	1.86 µM		2.56 µM	2.78 µM	2.97 µM	2.53 µM	5.13 µM	4.17 µM
CC(=O)[O][Ga]([Cl])[O]C(C)=O	> 100 µM			> 100 µM		> 100 µM	> 100 µM	> 100 µM	> 100 µM	> 100 µM	> 100 µM	> 100 µM			> 100 µM	> 100 µM	> 100 µM	> 100 µM	> 100 µM	
COc1cccc(-c2cc(=O)c3cc(OC)ccc3[nH]2)c1		> 100 µM		0.392 µM and 0.175 µM	> 100 µM	2.57 µM	41.5 µM	> 100 µM	> 100 µM	0.384 µM and 0.0812 µM	0.0445 µM	0.358 µM	0.296 µM		0.025 µM	0.121 µM and 0.0373 µM		0.084 µM	0.25 µM	5.85 µM
